Columns and labels:
[1] = test system: CD34+ HSPCs; test: Cell growth and viability (trypan blue) of edited CD34+ HSPCs during differentiation (Example 5); details: day 0 to day 18 post-editing; inhibitor 1 or 3 μM, i53 1 μg mRNA; data not shown
Description: Briefly, frozen CD34+ HSPCs isolated from Plerixafor mobilized peripheral blood, obtained from healthy human donors were thawed. The cells were seeded in CD34 cell media at a cell density of 2×10^5 cells/mL. Cells were cultured at 37° C. under normoxic conditions (i.e., oxygen 20%). Gene-editing was performed following two days of in vitro culture. For editing, 5×10^5 CD34+ HSPCs were electroporated with RNP containing 200 μg/ml Cas9 and 200 μg/ml T107 sgRNA. […] The cells were transduced with AAV.310, 1 hour prior to electroporation, at a dose of 10,000 MOI. The cells were plated in CD34 cell medium containing Compound 296 or Compound 984 immediately following the electroporation, at a concentration of 1 μM or 3 μM for 48 hours. […] Post electroporation cells were resuspended in CD34 cell medium at a density of 2-5×10^5 cells/ml and incubated at 37° C. for 48 hours.
Following editing, cells were differentiated to erythrocytes. Briefly, cells were plated in fresh CD34 media at a density of 2×10^5 cells/mL, and re-plated at similar density in fresh CD34 media on days 3 and 5 post-editing. On day 7 and 10 post-editing, the cells were incubated in Phase II media at a density of 2.5×10^5 and 1×10^6 cells/mL respectively. On day 12 post-editing, the cells were incubated in Phase III media at a density of 1×10^6 cells/mL. On day 14 cells were plated at a density of 2×10^6 cells/ml in Phase III media and maintained till day 18 at 37° C. Cell growth was measured at various time points between day 0 and day 18 post-editing, and the percentage of viable cells was measured by staining with tryphan blue.

[2] = test system: HBB gene in CD34+ HSPCs; test: In vitro editing with T107 RNP, AAV.310 or AAV.320 and inhibitors before transplantation; NGS and cell growth (Example 6); details: for change in cell growth if cells were edited with the inhibitor: T107 RNP+AAV.310 or AAV.320, data not shown; for frequency of HDR relative to editing with T107 RNP and AAV only / frequency of INDELs relative to editing with T107 RNP and AAV only: i53 1 μg mRNA, Compound 984 1 μM or 3 μM
Description: Briefly, frozen CD34+ HSPCs isolated from plerixafor-mobilized peripheral blood obtained from two healthy human donors were thawed and seeded in media with components as described in Example 1. The cells were maintained in culture, and gene-editing was performed following two days of culture. For editing, 5×10^5 CD34+ HSPCs were electroporated with RNP containing 20 μg SpCas9 and 20 μg T107 sgRNA. Electroporation was performed using the CA-137 program of the Lonza Amaxa™ 4D-Nucleofector™. The cells were transduced with AAV.310 or AAV.320 for 1 hour at 37° C. prior to electroporation at a dose of 10,000 MOI. The cells were electroporated and immediately plated in medium containing Compound 984 at 1 μM or 3 μM.
Cells were maintained in culture for two days following electroporation. Fold change in cell-growth between day 0 and day 2 post-electroporation was quantified.
Additionally, gene-edits in HBB were evaluated in CD34+ HSPCs following two days of in vitro culture.

[3] = test system: CD34+ HSPCs; test: Globin and hemoglobin analysis by HPLC on day 18 of differentiation (Example 5); type: cell-based, human; details: T107 RNP+AAV.310 alone or combined with the inhibitor
Description: (§1) Following editing, cells were differentiated to erythrocytes.
Additionally, on day 18 post-editing, expression of globin monomers was assessed in differentiated cells by HPLC as described in Example 3. […] Accordingly, the editing was sufficient to both introduce the SCD mutation in HBB and result in expression of sickle globin.
Furthermore, production of hemoglobin tetramers was also evaluated by HPLC. The analysis included quantification of HbS tetramer containing sickle-globin (α2β(E6V)2), HbF tetramer (α2γ2), HbA (α2β2), and HbA2 (α2δ2) produced by edited cells. […] Thus, the editing was also sufficient to alter hemoglobin output following in vitro differentiation.

[4] = test system: CD34+ HSPCs; test: Erythrocyte functionality: enucleation and cell-surface markers by flow cytometry (Example 5); type: cell-based, human; details: T107 RNP+AAV.310 alone or combined with the inhibitor
Description: as §1
The ability of edited cells to differentiate to functional erythrocytes was assessed by determining expression of erythrocyte-associated cell surface markers and enucleation using flow cytometry on day 12 and 18 post editing. Briefly, 4×10^5 cells were obtained, and half were stained for erythrocyte cell-surface markers and half were used for detection of enucleation. For staining cell-surface markers, the cells were incubated in PBS containing 1% human serum albumin (PBS-A) and an antibody cocktail of anti-CD233(BRIC6-Band3)-FITC, anti-CD71-PE, anti-CD235a(GlyA)-PE/Cy7, and anti-CD49d (α4)-VioBlue. For detection of enucleation, 2 drops of NucRed nuclear staining reagent was added to 1 mL PBS-A, and 100 μL was added to plated cells. Following incubation, both cell samples were labeled with Sytox Blue solution (1:1000 dilution in PBS-A) for live/dead analysis. Samples were then assessed by flow cytometry

[5] = test system: HBB gene locus in CD34+ HSPCs; test: HDR efficiency with DNA-PK inhibitors for editing the HBB gene in CD34+ HSPCs; NGS (Example 4); type: cell-based, human
Description: The cells were transduced with AAV donor template for 1 hour at 37° C. prior to electroporation. AAV-encoded homology donor template referred to as “AAV.310”, which is identified by sequence in Table 8. The AAV.310 donor template encodes a SCD mutation, specifically valine at the 6th codon downstream the HBB start codon (E6V). The cells were treated with AAV at a dose of 10,000 MOI.
Edited cells were evaluated for viability using trypan blue, and for incorporation of gene-edits at 2 days post-electroporation. The efficiency of HDR repair for introducing an E6V mutation in the HBB gene was quantified by NGS assay as described in Example 1, and the frequency of INDELs induced at the T107 cut site was also evaluated by NGS analysis.
The INDELs species identified in edited cells were further evaluated to determine frequency of repair by NHEJ or MMEJ repair pathways. An INDEL of ±1 nt was considered due to NHEJ repair; a deletion of −9 nt was considered due to MMEJ repair based on the microhomology present on either side of the T107 cut site. Based on percentage of total reads corresponding to these INDEL species, the ratio of gene edits due to NHEJ and MMEJ repair was evaluated. […] Thus, reduced frequency of INDELs with treatment of compound 296 or i53 is largely due to suppression of the NHEJ repair pathway.

[6] = T107 RNP + AAV.310 + 0.012 μM compound, 48 hours
[7] = T107 RNP + AAV.310 + 0.037 μM compound, 48 hours
[8] = T107 RNP + AAV.310 + 0.04 μM compound, 48 hours
[9] = T107 RNP + AAV.310 + 3.3 μM compound, 48 hours
[10] = T107 RNP + AAV.310 + 10 μM compound, 48 hours
[11] = T107 RNP + AAV.310 + i53 (1 μg mRNA)

Compound	cell growth over time or percent viability vs T107 RNP+AAV.310 edited cells [1]	change in cell growth if cells were edited with the inhibitor [2]	frequency of HDR relative to editing with T107 RNP and AAV only [2]	frequency of INDELs relative to editing with T107 RNP and AAV only [2]	HbA production compared to control cells [3]	HbS production compared to control cells [3]	expression of sickle-globin compared to control cells [3]	levels of enucleation vs control cells [4]	further results
[2H]c1nc(C)nc([2H])c1-c1cc(NC[C@@H](C)c2cccc3c(C(=O)NC)ccnc23)ncn1 [Compound 984]	No difference	no substantial change	increased	decreased	decreased	increased	increased	comparable	% HDR [5, 6]: 44%; % INDELs [5, 6]: 39%; % HDR [5, 7]: 51%; % INDELs [5, 7]: 36%; % HDR [5, 8]: 42%; % INDELs [5, 8]: 40%; % HDR [5, 9]: 49%; % INDELs [5, 9]: 30%; % HDR [5, 10]: 48%; % INDELs [5, 10]: 33%; reduction of the frequency of INDELs at the T107 cut site compared to control cells ([5]; T107 RNP+AAV.310 with DNA-PK inhibitor): approximately 1.6 fold
i53: polypeptide inhibitor of 53BP1 (SEQ ID NO: 11), introduced as an mRNA-encoded protein (ORF SEQ ID NO: 10)	No difference	no substantial change	increased	decreased	decreased	increased	increased	comparable	% HDR [5, 11]: 35%; % INDELs [5, 11]: 42%; INDEL species due to MMEJ repair (deletion of −9 nt) ([5]; T107 RNP+AAV.310, Compound 296 at 10 μM, i53 at 1 μg mRNA): did not affect

Source: US12497614B2, “Compositions and methods for editing beta-globin for treatment of hemaglobinopathies” (Vertex Pharmaceuticals Incorporated, priority 2020, dated 2025)
